In patent US20110237658A1, “COMPOUND AND METHOD FOR THE TREATMENT OF PAIN” (KRISHANI BIOSCIENCES (P) LTD, priority 2010, published 2011):

Test system: spinal nerve ligation model for neuropathic pain in rats
Experiment: Spinal nerve ligation (Chung) model of neuropathic pain, Von Frey test
Type: in vivo
Conditions: 150 mg/kg IP once daily from study day 14 to 21; 2 hours post-treatment on study days 14 and 21; male SD rats
Excerpt: Experimental animals were male SD rats with a starting weight of 230-250 grams. Total number of animals were n=90 for surgery and n=60 after selection. The animals were caged in groups of 3 in a temperature and humidity controlled area. They were maintained on a 12 hr light/dark cycle and had ad libitum access to food and water.
Neuropathic pain inducement was done by following principles of Chung induced model. The SD rats were anesthetized using ketamine/xylazine sodium. The rats were shaved and placed in prone position for surgery. The L5-L6 spinal nerves were surgically litigated. The rats were returned to their cages for recuperation and recovery under comfortable warm conditions using heat lamps.
After seven days of surgery a pre selection was performed. Animals that indicate signs of post operative pain were to be selected to proceed. Pain is detected by observing when one or more of the criteria are met as follows. Licking of the operated paw, accompanied by gentle biting or pulling on the nails with the mouth; placing the leg in the air; bearing weight on the side contra-lateral to the nerve injury; deformities of the hind paw and abnormal posture and walking; weakness of the left hind paw. […] However, the animal must be able to move its leg to ensure that the L4 spinal nerve is intact. If the animal cannot move its leg, it was excluded from the study. […]

CC(OC(=O)CCCC[C@@H]1CCSS1)OC(=O)NC(C)C(C)COC(=O)c1ccccc1 (stereo partly shown) [final compound of formula 1]
efficacy as reflected in the parameters of mechanical allodynia (Von Frey): effective
